From publication PMC8509398, “Proteolytic Cleavage of Bioactive Peptides and Protease-Activated Receptors in Acute and Post-Colitis” (International Journal of Molecular Sciences, 2021)
Residues, ends and D or L forms follow the SMILES beside them.

How the values were obtained:
trypsin-1 = trypsin-1 (Homo sapiens, UniProt P07477); test: Cleavage of peptides by purified trypsin-1, MALDI-TOF/TOF; settings: 25 nM protease, 10 µM peptide; for Incubation time at which the first cleavage or decrease of the full-length peptide was observed, trypsin-1: 37 °C, time points 2, 5, 10, 30 min; for TL disarming (D), Trypsin-1 / TL unmasking (U), Trypsin-1: PAR-based peptides, 37 °C, 2, 5, 10 and 30 min
Text: (§1) Trypsin-like proteases included in the experiments are trypsin-1, -2 and -3, tryptase (Enzo LifeSciences), thrombin (Sigma-Aldrich) and cathepsin G (Sigma-Aldrich). Trypsin-1, -2 and -3 were produced as described by Koistinen et al. and Wu et al.. Two elastase-like enzymes, neutrophil elastase (Enzo LifeSciences, Farmingdale, NY, USA) and pancreatic elastase I (Sigma-Aldrich) were included as well. All enzymes were from human origin except for pancreatic elastase from porcine pancreas.
(§2) Reaction mixtures with purified enzymes were compiled in an identical way. Each mixture contained an equimolar concentration of protease (25 nM based on) and 10 µM peptide of interest and was incubated for 2, 5, 10 and 30 min at 37 °C. Substance P was added as the standard peptide except for the reaction mixtures with substance P or bradykinin as the peptide of interest, where angiotensin II (Bachem) was added.
(§3) The TFA mixtures were thawed on ice and desalted using C18 zip-tips (Merck Millipore®, Burlington, MA, USA) with a capacity of 5 µg protein. Retained peptide fragments were eluted directly on the MALDI target plate. Next, 0.5 µL of a 2.5 mg/mL α-cyano-4-hydroxycinnamic acid (Sigma-Aldrich) matrix solution (in 70% acetonitrile, 0.1% TFA) was spotted on top of the sample. A 6-Peptide mixture Kit (AB Sciex, Framingham, MA, USA) containing bradykinin (2–9), angiotensin I, glu1-fibrinopeptide, ACTH (1–17), ACTH (18–39) and ACTH (7–38) was diluted with matrix and spotted on the plate as well.
(§4) MS and MS/MS data for peptide fragment identification were obtained with a MALDI-TOF/TOF instrument (4800 MALDI TOF/TOF™, Applied Biosystems, Waltham, MA, USA) and instrument parameters were set using 4000 Series Explorer™ software. MS spectra were recorded in positive reflector mode in a mass range from 500 to 4000 Da and laser intensity of 4500–4800 Hz. The spectra were calibrated using the calibration mixture mentioned above to a mass tolerance of 0.1 Da. MS/MS spectra were recorded with high-energy collision-induced dissociation and the laser intensity was increased by 10%. Precursor mass m/z 1570.65 (Glu1-Fibrinopeptide from the calibration mixture) was used to calibrate the MS/MS spectra to a mass tolerance of 0.1 Da.
(§5) MS and MS/MS spectra were processed using DataExplorer™ software and the obtained output files were uploaded in the MS-PEP data analyzer (https://bioit.shinyapps.io/PARs/ accessed 10/08/2020) for peptide fragment identification. Identified fragments were confirmed using the MS/MS spectra and mMass 5.5.0 by Martin Strohalm. The relative intensities of the fragments were calculated as the ratio of the intensity of the peak of interest to the intensity of the peak of the standard peptide.

trypsin-2 = trypsin-2 (Homo sapiens, UniProt P07478); test: Cleavage of peptides by purified trypsin-2, MALDI-TOF/TOF; settings: 25 nM protease, 10 µM peptide; for Incubation time at which the first cleavage or decrease of the full-length peptide was observed, trypsin-2: 37 °C, time points 2, 5, 10, 30 min; for TL disarming (D), Trypsin-2 / TL unmasking (U), Trypsin-2: PAR-based peptides, 37 °C, 2, 5, 10 and 30 min
trypsin-2, sequence (P07478 24-247): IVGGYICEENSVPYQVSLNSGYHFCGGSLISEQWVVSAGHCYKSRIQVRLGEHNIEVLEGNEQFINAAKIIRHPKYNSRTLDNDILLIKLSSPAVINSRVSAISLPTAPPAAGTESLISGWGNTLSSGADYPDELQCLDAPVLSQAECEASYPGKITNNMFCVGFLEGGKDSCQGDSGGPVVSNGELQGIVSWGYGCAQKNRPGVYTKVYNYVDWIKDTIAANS
Text: as §1, §2, §3, §4, §5

trypsin-3 = molecular target: T1, trypsin-3 (Homo sapiens, UniProt P35030); test: Cleavage of peptides by purified trypsin-3, MALDI-TOF/TOF; settings: 25 nM protease, 10 µM peptide; for TL disarming (D), Trypsin-3 / TL unmasking (U), Trypsin-3: PAR-based peptides, 37 °C, 2, 5, 10 and 30 min
T1 sequence (P35030 1-304): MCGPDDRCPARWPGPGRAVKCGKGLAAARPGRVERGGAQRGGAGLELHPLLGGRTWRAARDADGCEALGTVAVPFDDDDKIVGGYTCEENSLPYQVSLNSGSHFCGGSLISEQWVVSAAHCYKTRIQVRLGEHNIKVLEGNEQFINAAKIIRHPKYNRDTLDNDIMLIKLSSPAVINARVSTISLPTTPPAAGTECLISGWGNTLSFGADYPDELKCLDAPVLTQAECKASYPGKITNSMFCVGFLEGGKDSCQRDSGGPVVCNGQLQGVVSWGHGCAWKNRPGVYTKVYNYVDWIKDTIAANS
Text: as §1, §2, §3, §4, §5

tryptase = tryptase (Homo sapiens, UniProt Q15661); test: Cleavage of peptides by purified tryptase, MALDI-TOF/TOF; settings: 25 nM protease, 10 µM peptide; for TL disarming (D), Tryptase / TL unmasking (U), Tryptase: PAR-based peptides, 37 °C, 2, 5, 10 and 30 min
tryptase, sequence (Q15661 31-275): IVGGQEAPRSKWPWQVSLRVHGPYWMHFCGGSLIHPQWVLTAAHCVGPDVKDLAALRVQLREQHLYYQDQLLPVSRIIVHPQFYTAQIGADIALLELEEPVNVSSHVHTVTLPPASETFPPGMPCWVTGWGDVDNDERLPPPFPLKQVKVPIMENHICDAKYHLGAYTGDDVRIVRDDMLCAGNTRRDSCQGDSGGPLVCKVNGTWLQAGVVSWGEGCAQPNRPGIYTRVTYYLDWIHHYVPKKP
Text: as §1, §2, §3, §4, §5

thrombin = thrombin (Homo sapiens, UniProt P00734); test: Cleavage of peptides by purified thrombin, MALDI-TOF/TOF; settings: 25 nM protease, 10 µM peptide; for Incubation time at which the first cleavage or decrease of the full-length peptide was observed, thrombin: 37 °C, time points 2, 5, 10, 30 min; for TL disarming (D), Thrombin / TL unmasking (U), Thrombin: PAR-based peptides, 37 °C, 2, 5, 10 and 30 min
Text: as §1, §2, §3, §4, §5

cathepsin G = molecular target: T2, cathepsin G (Homo sapiens, UniProt P08311); test: Cleavage of peptides by purified cathepsin G, MALDI-TOF/TOF; settings: 25 nM protease, 10 µM peptide; for TL disarming (D), Cathepsin G / TL unmasking (U), Cathepsin G: PAR-based peptides, 37 °C, 2, 5, 10 and 30 min
T2 sequence (P08311 21-255): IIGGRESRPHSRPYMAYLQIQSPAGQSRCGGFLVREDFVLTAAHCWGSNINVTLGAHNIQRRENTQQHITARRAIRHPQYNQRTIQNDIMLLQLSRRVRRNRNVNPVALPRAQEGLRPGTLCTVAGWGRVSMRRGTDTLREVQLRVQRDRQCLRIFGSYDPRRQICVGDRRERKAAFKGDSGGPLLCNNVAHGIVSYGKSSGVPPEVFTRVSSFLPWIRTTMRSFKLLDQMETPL
Text: as §1
(§6) Reaction mixtures with purified enzymes were compiled in an identical way. […] Substance P was added as the standard peptide except for the reaction mixtures with substance P or bradykinin as the peptide of interest, where angiotensin II (Bachem) was added.
as §3
(§7) MS and MS/MS data for peptide fragment identification were obtained with a MALDI-TOF/TOF instrument (4800 MALDI TOF/TOF™, Applied Biosystems, Waltham, MA, USA) and instrument parameters were set using 4000 Series Explorer™ software. MS spectra were recorded in positive reflector mode in a mass range from 500 to 4000 Da and laser intensity of 4500–4800 Hz. The spectra were calibrated using the calibration mixture mentioned above to a mass tolerance of 0.1 Da. MS/MS spectra were recorded with high-energy collision-induced dissociation and the laser intensity was increased by 10%.
(§8) Identified fragments were confirmed using the MS/MS spectra and mMass 5.5.0 by Martin Strohalm. The relative intensities of the fragments were calculated as the ratio of the intensity of the peak of interest to the intensity of the peak of the standard peptide.

neutrophil elastase = molecular target: T3, neutrophil elastase (Homo sapiens, UniProt P08246); test: Cleavage of peptides by purified neutrophil elastase, MALDI-TOF/TOF; settings: 25 nM protease, 10 µM peptide; for TL disarming (D), Neutrophil Elastase / TL unmasking (U), Neutrophil Elastase: PAR-based peptides, 37 °C, 2, 5, 10 and 30 min
T3 sequence (P08246 30-267): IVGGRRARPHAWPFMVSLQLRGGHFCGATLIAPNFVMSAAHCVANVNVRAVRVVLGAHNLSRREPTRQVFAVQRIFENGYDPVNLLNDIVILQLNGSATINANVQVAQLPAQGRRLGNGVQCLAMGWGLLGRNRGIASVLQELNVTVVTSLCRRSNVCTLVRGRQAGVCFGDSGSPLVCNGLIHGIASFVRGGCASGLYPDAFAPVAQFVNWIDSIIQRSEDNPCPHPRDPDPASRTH
Text: as §1, §6, §3, §7, §8

pancreatic elastase I = pancreatic elastase I (Sus scrofa, UniProt P00772); test: Cleavage of peptides by purified pancreatic elastase, MALDI-TOF/TOF; settings: 25 nM protease, 10 µM peptide; for TL disarming (D), Pancreatic Elastase / TL unmasking (U), Pancreatic Elastase: PAR-based peptides, 37 °C, 2, 5, 10 and 30 min
pancreatic elastase I, sequence (P00772 27-266): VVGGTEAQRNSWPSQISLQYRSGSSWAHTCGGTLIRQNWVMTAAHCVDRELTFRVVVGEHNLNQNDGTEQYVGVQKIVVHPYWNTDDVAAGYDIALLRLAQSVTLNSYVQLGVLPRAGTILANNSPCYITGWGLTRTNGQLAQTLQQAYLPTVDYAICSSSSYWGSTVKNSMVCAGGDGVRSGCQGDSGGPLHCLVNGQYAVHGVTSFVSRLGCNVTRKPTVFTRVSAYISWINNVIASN
Text: as §1, §6, §3, §7, §8

[1] = 37 °C, time points 2, 5, 10, 30 min

Row | Compound | Incubation time at which the first cleavage or decrease of the full-length peptide was observed, trypsin-1 (trypsin-1) | TL disarming (D), Trypsin-1 (trypsin-1) | TL unmasking (U), Trypsin-1 (trypsin-1) | Incubation time at which the first cleavage or decrease of the full-length peptide was observed, trypsin-2 (trypsin-2) | TL disarming (D), Trypsin-2 (trypsin-2) | TL unmasking (U), Trypsin-2 (trypsin-2) | TL disarming (D), Trypsin-3 (trypsin-3) | TL unmasking (U), Trypsin-3 (trypsin-3) | TL disarming (D), Tryptase (tryptase) | TL unmasking (U), Tryptase (tryptase) | Incubation time at which the first cleavage or decrease of the full-length peptide was observed, thrombin (thrombin) | TL disarming (D), Thrombin (thrombin) | TL unmasking (U), Thrombin (thrombin) | TL disarming (D), Cathepsin G (cathepsin G) | TL unmasking (U), Cathepsin G (cathepsin G) | TL disarming (D), Neutrophil Elastase (neutrophil elastase) | TL unmasking (U), Neutrophil Elastase (neutrophil elastase) | TL disarming (D), Pancreatic Elastase (pancreatic elastase I) | TL unmasking (U), Pancreatic Elastase (pancreatic elastase I) | further results
1 | CC[C@H](C)[C@H](NC(=O)[C@@H]1CCCN1C(=O)[C@H](CC(C)C)NC(=O)[C@@H](NC(=O)[C@@H]1CCCN1C(=O)[C@H](CCCCN)NC(=O)[C@H](C)NC(=O)[C@H](CC(C)C)NC(=O)[C@H](CC(N)=O)NC(=O)[C@H](CC(N)=O)NC(=O)[C@@H](NC(=O)[C@H](CC(=O)O)NC(=O)[C@H](CC(N)=O)NC(=O)[C@H](CCC(=O)O)NC(=O)[C@H](CCSC)NC(=O)CN)[C@@H](C)O)[C@@H](C)O)C(=O)N[C@@H](CCCCN)C(=O)N[C@H](C(=O)N[C@@H](Cc1ccccc1)C(=O)N[C@@H](CCCNC(=N)N)C(=O)NCC(=O)N[C@@H](C)C(=O)N1CCC[C@H]1C(=O)N1CCC[C@H]1C(=O)N[C@@H](CC(N)=O)C(=O)N[C@@H](CO)C(=O)N[C@@H](Cc1ccccc1)C(=O)N[C@@H](CCC(=O)O)C(N)=O)[C@@H](C)O [PAR3-based] (H-GMENDTNNLAKPTLPIKTFRGAPPNSFE-NH2) | 2 min | +++ (ultrafast processing within 2 min) | +++ (ultrafast processing within 2 min) | 2 min | ++ (fast processing after 5 min) | +++ (ultrafast processing within 2 min) | + (processing after 10 or 30 min) | − | +++ (ultrafast processing within 2 min) | − | 2 min | − | +++ (ultrafast processing within 2 min) | +++ (ultrafast processing within 2 min) | − | +++ (ultrafast processing within 2 min) | − | +++ (ultrafast processing within 2 min) | − | 
2 | CC[C@H](C)[C@H](NC(=O)[C@H](CC(C)C)NC(=O)[C@H](CO)NC(=O)[C@H](CCCNC(=N)N)NC(=O)CNC(=O)[C@H](CCCCN)NC(=O)[C@H](CO)NC(=O)[C@H](CO)NC(=O)[C@H](CCCNC(=N)N)NC(=O)[C@H](CC(N)=O)NC(=O)[C@@H](NC(=O)CNC(=O)[C@H](CCC(N)=O)NC(=O)[C@@H](NC(=O)[C@@H](N)[C@@H](C)O)[C@@H](C)CC)[C@@H](C)O)C(=O)NCC(=O)N[C@@H](CCCCN)C(=O)N[C@H](C(=O)N[C@@H](CC(=O)O)C(=O)NCC(=O)N[C@H](C(=O)N[C@@H](CO)C(=O)N[C@@H](Cc1c[nH]cn1)C(=O)N[C@H](C(N)=O)C(C)C)[C@@H](C)O)C(C)C [PAR2-based] (H-TIQGTNRSSKGRSLIGKVDGTSHV-NH2) | 2 min | − | +++ (ultrafast processing within 2 min) | 2 min | − | +++ (ultrafast processing within 2 min) | − | − | − | +++ (ultrafast processing within 2 min) | > 30 min | − | − | − | − | + (processing after 10 or 30 min) | − | − | − | Incubation time at which the first cleavage or decrease of the full-length peptide was observed, trypsin-3 (trypsin-3; [1]): > 30 min; Incubation time at which the first cleavage or decrease of the full-length peptide was observed, tryptase (tryptase; [1]): 2 min; Incubation time at which the first cleavage or decrease of the full-length peptide was observed, cathepsin G (cathepsin G; [1]): > 30 min; Incubation time at which the first cleavage or decrease of the full-length peptide was observed, neutrophil elastase (neutrophil elastase; [1]): 30 min; Incubation time at which the first cleavage or decrease of the full-length peptide was observed, pancreatic elastase (pancreatic elastase I; [1]): > 30 min
